Results reported in patent US7994185B2, “Benzene sulfonamide thiazole and oxazole compounds” (Glaxo Smith Kline LLC, priority 2008, dated 2011).

Key:
[1] = system: Human colon tumor cells (Colo205); assay: Cell growth inhibition assay (CellTiter-Glo), Colo205; assay type: cell-based; details: COLO 205, Table 2b, later runs, average for the one or more runs, categorized, read-out: IC50 for Colo205
How it was run: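 Colo205 (and SK-MEL-28) cells in RPMI with 10% FBS were exposed to 10-point 1:3 serial dilutions of compound at 0.2% final DMSO for 3 days at 37 °C. Total ATP, a surrogate for cell number, was read by CellTiter-Glo luminescence, with % growth inhibition relative to DMSO-treated wells.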

[2] = system: Human melanoma cancer cells (SK-MEL-28); assay: Cell growth inhibition assay (CellTiter-Glo), SK-MEL-28; assay type: cell-based; details: SK-MEL-28, Table 3b, later runs, average for the one or more runs, categorized, read-out: IC50 for SK-MEL-28
MALME-3M = assay: 3 day proliferation assay, B-Raf V600E mutant cancer cell line; assay type: cell-based; details: Homo sapiens, Skin, BRAF V600E, read-out: Mean gIC50
UACC-62 = assay: as above; assay type: cell-based; details: Homo sapiens; UACC-62, Skin, BRAF V600E; read-out: Mean gIC50
C32TG = assay: as above; assay type: cell-based; details: Skin, BRAF V600E, read-out: Mean gIC50
SK-MEL-1 = assay: as above; assay type: cell-based; details: Homo sapiens; SK-MEL-1, Skin, BRAF V600E; read-out: Mean gIC50
UCLA-SO-M14 = assay: as above; assay type: cell-based; details: UCLA-SO-M14, Skin, BRAF V600E; read-out: Mean gIC50
SK-MEL-28 = assay: as above; assay type: cell-based; details: Homo sapiens; SK-MEL-28, Skin, BRAF V600E; read-out: Mean gIC50
DU4475 = assay: as above; assay type: cell-based; details: Homo sapiens, DU-4475; DU4475, Breast, BRAF V600E; read-out: Mean gIC50
WM115 = assay: as above; assay type: cell-based; details: Homo sapiens, WM-115, WM115, Skin, BRAF V600D, read-out: Mean gIC50
UACC-257 = assay: as above; assay type: cell-based; details: Homo sapiens; UACC-257, Skin, BRAF V600E; read-out: Mean gIC50
COLO 205 = assay: as above; assay type: cell-based; details: Homo sapiens; COLO 205, Colon, BRAF V600E; read-out: Mean gIC50
SK-MEL-3 = assay: as above; assay type: cell-based; details: Homo sapiens, SK-MEL3; SK-MEL-3, Skin, BRAF V600E; read-out: Mean gIC50
A375P F11s [3] = assay: as above; assay type: cell-based; details: Skin, BRAF V600E, read-out: Mean gIC50
SH-4 = assay: as above; assay type: cell-based; details: Homo sapiens; SH-4, Skin, BRAF V600E; read-out: Mean gIC50
A101D = assay: as above; assay type: cell-based; details: Homo sapiens, Skin, BRAF V600E, read-out: Mean gIC50
ES-2 = assay: as above; assay type: cell-based; details: Homo sapiens; ES-2, Ovary, BRAF V600E; read-out: Mean gIC50
HT-29 = assay: as above; assay type: cell-based; details: Homo sapiens, HT-29, Colon, BRAF T119S, read-out: Mean gIC50
SW1417 = assay: as above; assay type: cell-based; details: Homo sapiens; SW1417, Colon, BRAF V600E; read-out: Mean gIC50
SW872 = assay: as above; assay type: cell-based; details: Homo sapiens; SW872, Connective tissue, BRAF V600E; read-out: Mean gIC50
RKO = assay: as above; assay type: cell-based; details: Homo sapiens, Colon, BRAF V600E, read-out: Mean gIC50
A673 = assay: as above; assay type: cell-based; details: Homo sapiens; A673, Muscle, BRAF V600E; read-out: Mean gIC50
GCT = assay: as above; assay type: cell-based; details: Homo sapiens, Skin, BRAF V600E, read-out: Mean gIC50
NCI-H292 = assay: as above; assay type: cell-based; details: Homo sapiens, NCI-H292, Lung, BRAF T119S, read-out: Mean gIC50
[4] = system: cancer cell lines encoding B-Raf V600E mutation; assay: 3 day proliferation assay, panel of 22 mutant cancer cell lines; assay type: cell-based; details: number of cell lines of the panel
A375P F11s [5] = assay: Dose dependent tumor inhibition, A375P F11s xenograft; assay type: in vivo, athymic mice; set-up: key: −: indicates no response; +: indicates growth delay (1-2x doubling); ++: indicates growth delay (>2x doubling); +++: indicates stable disease; ++++: indicates partial regression; +++++: indicates complete regression; details: oral, 14-day period
Experimental: 1. […] Tumor cells (2×10^6 A375P F11s) were implanted subcutaneously into the right flank of athymic mice on Day 1. To facilitate their growth, A375P F11s cells were suspended in Matrigel diluted 1:1 in phosphate-buffered saline before implantation. When tumors had reached approximately 200 mm^3 in volume (Day 19-22), tumor-bearing mice were randomized into study groups (n=7 or 8). Animals were dosed orally once or twice daily for a 14-day period. […] Tumor growth was measured twice a week using calipers for the duration of the study. Tumor volumes were calculated as a product of (length×width×width)/2 and median values were used to compare groups. Complete regressions (CR) were defined as three consecutive tumor measurements of ≦13.5 mm^3. Partial regressions were defined as three consecutive measurements of ≦50% of starting tumor volume. Tumor growth delay was defined as the difference in time taken for treated and control groups to reach 1000 mm^3 (T-C1000).

CC(C)(C)c1nc(-c2cccc(NS(=O)(=O)c3c(F)cccc3F)c2F)c(-c2ccnc(N)n2)s1 [Example 58a, N-{3-[5-(2-Amino-4-pyrimidinyl)-2-(1,1-dimethylethyl)-1,3-thiazol-4-yl]-2-fluorophenyl}-2,6-difluorobenzenesulfonamide]
IC50 [1]: < 100 nM
IC50 [2]: < 100 nM
IC50 (MALME-3M): < 100 nM
IC50 (UACC-62): < 100 nM
IC50 (C32TG): < 100 nM
IC50 (SK-MEL-1): < 100 nM
IC50 (UCLA-SO-M14): < 100 nM
IC50 (SK-MEL-28): < 100 nM
IC50 (DU4475): < 100 nM
IC50 (WM115): < 100 nM
IC50 (UACC-257): < 100 nM
IC50 (COLO 205): < 100 nM
IC50 (SK-MEL-3): < 100 nM
IC50 (A375P F11s [3]): < 100 nM
IC50 (SH-4): < 100 nM
IC50 (A101D): < 100 nM
IC50 (ES-2): < 100 nM
IC50 (HT-29): < 100 nM
IC50 (SW1417): 100 to 1000 nM
IC50 (SW872): 100 to 1000 nM
IC50 (RKO): ≥ 1000 nM
IC50 (A673): ≥ 1000 nM
IC50 (GCT): ≥ 1000 nM
IC50 (NCI-H292): ≥ 1000 nM
cancer cell lines encoding B-Raf V600E sensitive with gIC50<100 nM [4]: 16 out of 22
cancer cell lines not sensitive (gIC50>1000M) [4]: 4 out of 22
cancer cell lines with intermediate response (gIC50≧100 nM and <1000 nM) [4]: 2 out of 22
Response (A375P F11s [5]; 0.1 mg/kg qd): −
Response (A375P F11s [5]; 1 mg/kg qd): + (indicates growth delay (1-2x doubling))
